Measured values as given in patent US20150191462A1, “PYRROLIDINE DERIVATIVES AND THEIR USE AS COMPLEMENT PATHWAY MODULATORS” (priority 2012, published 2015).

Biological target: Recombinant human factor D (Homo sapiens, UniProt P00746)
Assay: Human Complement Factor D Assay: Method 1
Type: biochemical
Conditions: Factor D inhibition, 10 nM factor D, Z-Lys-thiobenzyl substrate, fluorescence readout
Protocol: Human Complement Factor D Assay: Method 1 Recombinant human factor D (expressed in E. coli and purified using standard methods) at 10 nM concentration is incubated with test compound at various concentrations for 1 hour at room temperature in 0.1 M Hepes buffer, pH 7.5, containing 1 mM MgCl2, 1 M NaCl and 0.05% CHAPS. […] The increase in fluorescence is recorded at excitation of 485 nm and emission at 535 nm in a microplate spectrofluorimeter. IC50 values are calculated from percentage of inhibition of complement factor D-activity as a function of test compound concentration.

Recombinant human factor D, sequence (P00746 26-253): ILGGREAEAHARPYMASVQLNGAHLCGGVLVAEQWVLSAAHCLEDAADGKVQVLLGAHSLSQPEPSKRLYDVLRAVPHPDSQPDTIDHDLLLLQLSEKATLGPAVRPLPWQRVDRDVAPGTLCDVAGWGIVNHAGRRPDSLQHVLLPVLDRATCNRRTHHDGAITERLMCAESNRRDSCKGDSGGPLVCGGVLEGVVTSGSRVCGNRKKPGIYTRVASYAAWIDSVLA

Row | SMILES | IC50 [nM]
1 | COc1cc(Br)nc(NC(=O)[C@@H]2C[C@H]3C[C@H]3N2C(=O)Cn2nc(C(N)=O)c3ccccc32)c1 [Example 22, 1-{2-[(1R,3S,5R)-3-(6-Bromo-4-methoxy-pyridin-2-ylcarbamoyl)-2-aza-bicyclo[3.1.0]hex-2-yl]-2-oxo-ethyl}-1H-indazole-3-carboxylic acid amide] | 5
2 | NC(=O)c1nn(CC(=O)N2C[C@H](F)[C@H](F)[C@H]2C(=O)Nc2cccc(Br)n2)c2ccccc12 [Example 23, 1-{2-[(2R,3R,4S)-2-(6-Bromo-pyridin-2-ylcarbamoyl)-3,4-difluoro-pyrrolidin-1-yl]-2-oxo-ethyl}-1H-indazole-3-carboxylic acid amide] | 8
3 | NC(=O)c1nn(CC(=O)N2C[C@H](F)C[C@H]2C(=O)Nc2cccc(Br)n2)c2cnc(CF)cc12 [Example 24, 1-(2-((2S,4R)-2-(6-bromopyridin-2-ylcarbamoyl)-4-fluoropyrrolidin-1-yl)-2-oxoethyl)-5-(fluoromethyl)-1H-pyrazolo[3,4-c]pyridine-3-carboxamide] | 7
4 | NC(=O)c1nn(CC(=O)N2CCS[C@H]2C(=O)Nc2cccc(Br)n2)c2ccccc12 [Example 25, (S)-N-(6-bromopyridin-2-yl)-3-(2-(3-carbamoyl-1H-indazol-1-yl)acetyl)thiazolidine-2-carboxamide] | 10
5 | CNC(=O)c1nn(CC(=O)N2[C@@H]3C[C@@H]3C[C@H]2C(=O)Nc2cccc(Br)n2)c2ccccc12 [Example 26, 1-(2-((1R,3S,5R)-3-((6-bromopyridin-2-yl)carbamoyl)-2-azabicyclo[3.1.0]hexan-2-yl)-2-oxoethyl)-N-methyl-1H-indazole-3-carboxamide] | 40
6 | NC(=O)c1nn(CC(=O)N2CC[C@H](F)[C@H]2C(=O)Nc2cccc(Br)n2)c2ccccc12 [Example 27, 1-(2-((2R,3S)-2-((6-bromopyridin-2-yl)carbamoyl)-3-fluoropyrrolidin-1-yl)-2-oxoethyl)-1H-indazole-3-carboxamide] | 80
7 | NC(=O)c1nn(CC(=O)N2C3CC(C3)C2C(=O)Nc2cccc(Br)n2)c2ccccc12 (centres unmarked) [Example 28, N-(6-bromopyridin-2-yl)-2-(2-(3-carbamoyl-1H-indazol-1-yl)acetyl)-2-azabicyclo[2.1.1]hexane-3-carboxamide] | 120
8 | Cc1cc2c(C(N)=O)nn(CC(=O)N3[C@@H]4C[C@@H]4C[C@H]3C(=O)Nc3cccc(C(F)(F)F)n3)c2c(C)n1 [Example 29, 5,7-dimethyl-1-(2-oxo-2-((1R,3S,5R)-3-((6-(trifluoromethyl)pyridin-2-yl)carbamoyl)-2-azabicyclo[3.1.0]hexan-2-yl)ethyl)-1H-pyrazolo[3,4-c]pyridine-3-carboxamide] | 6
9 | Cc1cc2c(C(N)=O)nn(CC(=O)N3[C@@H]4C[C@@H]4C[C@H]3C(=O)Nc3cncc(C(F)(F)F)n3)c2c(C)n1 [Example 30, 5,7-dimethyl-1-(2-oxo-2-((1R,3S,5R)-3-((6-(trifluoromethyl)pyrazin-2-yl)carbamoyl)-2-azabicyclo[3.1.0]hexan-2-yl)ethyl)-1H-pyrazolo[3,4-c]pyridine-3-carboxamide] | 80
10 | NC(=O)n1cc(NC(=O)N2[C@@H]3C[C@@H]3C[C@H]2C(=O)Nc2cncc(Br)n2)c2ccccc21 [Example 31, (1R,3S,5R)-2-Aza-bicyclo[3.1.0]hexane-2,3-dicarboxylic acid 3-[(6-bromo-pyrazin-2-yl)-amide]2-[(1-carbamoyl-1H-indol-3-yl)-amide]] | 4

Other lines, results leading:

Row | IC50 [nM] | SMILES
11 | 5 | Cc1ncc(NC(=O)[C@@H]2C[C@H]3C[C@H]3N2C(=O)Nc2cn(C(N)=O)c3ccccc23)nc1Br [Example 32, (1R,3S,5R)-2-Aza-bicyclo[3.1.0]hexane-2,3-dicarboxylic acid 3-[(6-bromo-5-methyl-pyrazin-2-yl)-amide] 2-[(1-carbamoyl-1H-indol-3-yl)-amide]]
12 | 14 | C[C@@]1(F)C[C@@H](C(=O)Nc2cccc(Br)n2)N(C(=O)Nc2cn(C(N)=O)c3ccccc23)C1 [Example 34, (2S,4R)-4-Fluoro-4-methyl-pyrrolidine-1,2-dicarboxylic acid 2-[(6-bromo-pyridin-2-yl)-amide] 1-[(1-carbamoyl-1H-indol-3-yl)-amide]]
13 | 20 | NC(=O)n1cc(NC(=O)N2CCC[C@H]2C(=O)Nc2cccc(Br)n2)c2ccccc21 [Example 35, (S)-Pyrrolidine-1,2-dicarboxylic acid 2-[(6-bromo-pyridin-2-yl)-amide]-1-[(1-carbamoyl-1H-indol-3-yl)-amide]]
14 | 55 | NC(=O)n1cc(NC(=O)N2[C@@H]3C[C@@H]3C[C@H]2C(=O)Nc2cncc(C(F)(F)F)n2)c2ccccc21 [Example 36, (1R,3S,5R)-2-Aza-bicyclo[3.1.0]hexane-2,3-dicarboxylic acid 2-[(1-carbamoyl-1H-indol-3-yl)-amide] 3-[(6-trifluoromethyl-pyrazin-2-yl)-amide]]
15 | 8 | C[C@@]12C[C@@H](C(=O)Nc3cccc(Br)n3)N(C(=O)Nc3cn(C(N)=O)c4ccccc34)[C@@H]1C2 [Example 37, (1R,3S,5R)-5-Methyl-2-aza-bicyclo[3.1.0]hexane-2,3-dicarboxylic acid 3-[(6-bromo-pyridin-2-yl)-amide] 2-[(1-carbamoyl-1H-indol-3-yl)-amide]]
16 | 10 | NC(=O)n1cc(NC(=O)N2C[C@H](F)[C@H](F)[C@H]2C(=O)Nc2cccc(Br)n2)c2ccccc21 [Example 38, (2R,3R,4S)-N2-(6-bromopyridin-2-yl)-N1-(1-carbamoyl-1H-indol-3-yl)-3,4-difluoropyrrolidine-1,2-dicarboxamide]
17 | 20 | NC(=O)n1cc(NC(=O)N2CCS[C@H]2C(=O)Nc2cccc(Br)n2)c2ccccc21 [Example 39, (S)-N2-(6-bromopyridin-2-yl)-N3-(1-carbamoyl-1H-indol-3-yl)thiazolidine-2,3-dicarboxamide]
